Laboratory results reported in patent publication US11071697B2, “Metal-carbon structure hybrid formulation for dental use in the treatment of dental hypersensitivity, demineralization and cavities” (UNIVERSIDAD DE CHILE, priority 2016, dated 2021).

Columns and labels:
[1] = Solubility of the salt as ammonia metal complex; type: physicochemical; conditions: impossible in aqueous solution
Text: In FIG. 6 it is observed the absorption spectrum UV/Visible which confirms this structure.
The shift toward smaller wavelengths gives an account of the formation of ammonia metal complex which is observed in an increase of the solubility of the salt in this solution which allows to reach fluoride concentrations close to 30,000 ppm, which is impossible in aqueous solution.

[2] = system: main bacterial species associated with dental caries; assay: In vitro antibacterial capacity, inhibition halos; type: cell-based; conditions: composition: 25,000 ppm aqueous (Cu(NH3)6)F2 ammonia with 0.002 g/ml graphite oxide; FIG. 1
Text: FIG. 1. […] The dark zone corresponds to the area where there is no bacterial growth. […] A) Chlorhexidine, B) Silver Diamine Fluorine, C) Silane Fluorine, D) Composition of the Invention. […] These tests have been performed on the main bacterial species associated with dental caries.

(TPH1) human cells = assay: Cell viability by mitochondrial activity assay (MTT); type: cell-based; conditions: FIG. 2
Text: FIG. 2. Cell viability assay using mitochondrial activity technique (MTT). THP1 cell type.

| Compound | fluoride concentrations reached in ammonia solution [1] | areas of inhibition halos [2] [mm^2] | toxicity (in words) ((TPH1) human cells) |
| --- | --- | --- | --- |
| N.N.N.N.N.N.[Cu+2].[F-].[F-] [Cu(NH3)6F2] | ~30,000 ppm |  |  |
| [H]/N=C(\N/C(=N/[H])NCCCCCCNC(=N)NC(=N)Nc1ccc(Cl)cc1)Nc1ccc(Cl)cc1 [chlorhexidine] |  | 659 | a degree of toxicity |
